Laboratory results reported in publication PMC4492757 (Pharmacology Research & Perspectives, 2015).

Legend:
Type in all cases: cell-based
hFFA2 [1] = molecular target: T1, hFFA2 (Homo sapiens, UniProt O15552); assay: LANCE cAMP assay, U2OS cells
T1 sequence (O15552 1-330): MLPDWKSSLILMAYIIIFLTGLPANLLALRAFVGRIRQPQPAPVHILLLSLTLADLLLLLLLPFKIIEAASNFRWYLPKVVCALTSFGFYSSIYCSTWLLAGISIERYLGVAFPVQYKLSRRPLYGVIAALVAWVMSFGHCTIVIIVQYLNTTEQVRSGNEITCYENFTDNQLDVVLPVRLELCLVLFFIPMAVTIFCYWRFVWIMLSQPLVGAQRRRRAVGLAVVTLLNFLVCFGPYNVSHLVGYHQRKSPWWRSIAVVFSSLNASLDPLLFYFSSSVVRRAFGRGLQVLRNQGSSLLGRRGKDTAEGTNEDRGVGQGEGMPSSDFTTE

hFFA2 [2] = molecular target: T1, hFFA2; assay: yeast reporter assay, antagonism
hFFA2 [3] = molecular target: T1, hFFA2; assay: yeast reporter assay, operational model fit
hFFA2 [4] = molecular target: T1, hFFA2; assay: yeast FUS1-HIS3 reporter growth assay

## CC(=O)O [C2, acetate]
hFFA2 [1]
  EC50: 126 µM

## O=C(N[C@@H](Cc1c[nH]c2ccccc12)C(=O)O)c1ccc(Cl)cc1 [N-CBT, N-(4-Chlorobenzoyl)-L-tryptophan]
hFFA2 [2]
  Kb: 0.501 µM

## O=C(O)C[C@H](C(=O)Nc1nc(-c2ccccc2Cl)cs1)c1ccccc1 [compound 9, (S)-4-(4-(2-chlorophenyl)thiazol-2-ylamino)-4-oxo-3-phenylbutanoic acid]
hFFA2 [3]
  Kd: 0.155 µM

## CN(C(=O)[C@H]1CCCC[C@H]1C(=O)O)c1nc(-c2ccccc2Cl)cs1 [compound 101, cis-2-((4-(2-chlorophenyl)thiazol-2-yl)(methyl)carbamoyl)cyclohexaneccarboxylic acid]
hFFA2 [4]
  IC50: 0.186 µM
